Measured values from patent US11040048B2, “Medicament for treating influenza characterized by combining a Cap-dependent endonuclease inhibitor and an anti-influenza drug” (Shionogi & Co., Ltd., priority 2015, dated 2021).
Several values for one entry are separate records, joined by “and”; a condition that tells them apart may be missing. Equal values may be shown once. Read-outs that look alike come from different tables or passages of the source.

How the values were obtained:
[1] = molecular target: cap-dependent endonuclease (CEN); RNP fraction containing PB1-PB2-PA complex (Influenza A virus, UniProt P15659); experiment: biochemical
[2] = system: A/Victoria/3/75 (H3N2); experiment: microbe, parasite or virus in culture; assay type: cell-based; settings: Influenza A virus, single agent, MDCK
[3] = system: A/PR/8/34 (H1N1); experiment: microbe, parasite or virus in culture; assay type: cell-based, influenza virus; settings: single agent, MDCK
[4] = monkey, in vivo, po
[5] = rat, po
Source text: FIG. 1 is a result of measuring the plasma concentration of Compound III-1, after oral administration of prodrug Compound II-4, the parent compound of which is Compound III-1, to rat under non-fasting conditions.
FIG. 2 is a result of measuring the plasma concentration of Compound II-4, after oral administration of prodrug Compound II-4, the parent compound of which is Compound III-1, to rat under non-fasting conditions.

[6] = system: B/Maryland/1/59; experiment: microbe, parasite or virus in culture; assay type: cell-based, influenza virus
[7] = system: A/WSN/33 (H1N1); experiment: Synergistic CPE inhibitory effect confirming assay, MDCK cells; assay type: cell-based; settings: Influenza A virus, single agent
[8] = system: A/HongKong/8/68 (H3N2); experiment: as above; assay type: cell-based; settings: Influenza A virus, single agent
[9] = in vivo; design: species or system mice or SD rats
Experimental: (1) Experimental animals: mice or SD rats were used.
(2) Rearing condition: mice or SD rats were allowed free access to solid feed and sterilized tap water.
(3) Setting of dosage and grouping: Oral administration and intravenous administration were performed with the predetermined dosage. Grouping was set as below. (Dosage was changed per compound)
Oral administration 1 to 30 mg/kg (n=2 to 3)
Intravenous administration 0.5 to 10 mg/kg (n=2 to 3)
(4) Preparation of administration solutions: Oral administration was performed as solution or suspension. Intravenous administration was performed after solubilization.
(5) Routes of administration: Oral administration was performed mandatory into the stomach by oral sonde. Intravenous administration was performed from caudal vein by syringes with needle.
(6) Evaluation items: Blood was collected serially and concentration of a compound of the present invention in plasma was measured by LC/MS/MS.
(7) Statistical analysis: About transition of concentration of a compound of the present invention in plasma, the area under the plasma concentration versus time curve (AUC) was calculated by non-linear least-squares method program, WinNonlin (a registered trademark), and bioavailability (BA) of a compound of the present invention was calculated from AUCs of the oral administration group and the intravenous administration group. […]

[10] = system: influenza virus; experiment: CPE inhibitory effect confirming assay (WST-8); assay type: cell-based; settings: unidentified influenza virus, read-out: CPE_EC50
[11] = system: influenza virus A; experiment: Synergistic CPE inhibitory effect confirming assay, summary for influenza A strains; assay type: cell-based
[12] = unidentified influenza virus, MDCK

O=C1c2c(O)c(=O)ccn2N([C@@H]2c3ccccc3SCc3cccc(Cl)c32)[C@H]2COCCN12 (racemic) [Reference 682]
IC50 [1]: 104 nM

O=C1c2c(O)c(=O)ccn2N([C@@H]2c3ccccc3SCc3cccc(Cl)c32)[C@@H]2COCCN12 (racemic) [Reference 684]
IC50 [1]: 19.7 nM

O=C1c2c(O)c(=O)ccn2N([C@@H]2c3ccccc3CSc3ccccc32)[C@@H]2COCCN12 (racemic) [Reference 714]
IC50 [1]: 95 nM

O=C1c2c(O)c(=O)ccn2N([C@@H]2c3ccccc3CSc3ccccc32)[C@H]2COCCN12 (racemic) [Reference 715]
IC50 [1]: 25.5 nM

NC12CC3CC(CC(C3)C1)C2 [Amantadine]
EC50 [2]: 2510 nM

NC(=O)c1nc(F)c[nH]c1=O [Favipiravir]
EC50 ([3]; Influenza A virus): 26900 nM

CC(=O)Oc1c2n(ccc1=O)N([C@@H]1c3ccccc3SCc3c1ccc(F)c3F)[C@@H]1COCCN1C2=O [II-2]
plasma concentration of prodrug in all plasma samples [4]: a determination limit or less

COC(=O)OCOc1c2n(ccc1=O)N([C@@H]1c3ccccc3SCc3c1ccc(F)c3F)[C@@H]1COCCN1C2=O [II-4]
concentration of prodrug in plasma samples ([5]; in vivo): a determination limit or less
conversion of prodrug to parent compound in vivo after administration [5]: changed promptly to Compound III-1

O=C1c2c(O)c(=O)ccn2N([C@@H]2c3ccccc3SCc3c2ccc(F)c3F)[C@@H]2COCCN12 [III-1]
EC50 [6, 12]: 14.7 nM
EC50 [7]: 2.85 nM
EC50 ([3]; Influenza A virus): 4.95 nM
EC50 [2]: 3.48 nM
EC50 [8]: 2.08 nM

O=C1c2c(O)c(=O)ccn2N([C@H]2c3ccc(F)cc3CSc3ccccc32)[C@@H]2COCCN12 [III-2]
bioavailability [9]: 4.2%

O=C1c2c(O)c(=O)ccn2N([C@@H]2c3ccccc3SCc3c2ccc(F)c3F)[C@@H]2CC3(CCOCC3)CCN12 [III-9]
EC50 [10]: 0.864 nM

O=C1c2c(O)c(=O)ccn2N([C@@H]2c3ccccc3SCc3c2ccc(F)c3F)[C@@H]2CC3(CCN12)COC3 [III-12]
EC50 [10]: 0.656 nM

[H]/N=C(\N)N[C@H]1C=C(C(=O)O)O[C@@H]([C@H](OC)[C@H](O)CO)[C@@H]1NC(C)=O [Laninamivir, Laninaminivir]
EC50 [6, 12]: 110 nM
EC50 ([3]; Influenza A virus): 213 nM
proliferation inhibitory effect on influenza virus A (combination effect) [11]: synergistic

CCOC(=O)C1=C[C@@H](OC(CC)CC)[C@H](NC(C)=O)[C@@H](N)C1 [Oseltamivir]
EC50 [6, 12]: 864 nM
EC50 [7]: 59300 nM
EC50 ([3]; Influenza A virus): 1830 nM
EC50 [2]: 245 nM
EC50 [8]: 71.2 nM
proliferation inhibitory effect on influenza virus A (combination effect) [11]: synergistic

CCC(CC)[C@H](NC(C)=O)[C@@H]1[C@H](O)[C@@H](C(=O)O)C[C@H]1N=C(N)N [Peramivir, peramivir]
EC50 ([6]; single agent, B/Maryland/1/59, MDCK, read-out: EC50): 354 nM
EC50 [3]: 214 nM
proliferation inhibitory effect on influenza virus A (combination effect) [11]: synergistic

O=C1c2c(O)c(=O)ccn2N(C2c3ccccc3CSc3ccccc32)[C@@H]2CCCN12 (stereo partly shown) [Reference 583 or 584]
IC50 [1]: 43.4 nM and 28.1 nM

CC(N)C12CC3CC(CC(C3)C1)C2 (stereo not shown) [Rimantadine]
EC50 [2]: 158 nM

O=C(Nc1ncc([N+](=O)[O-])s1)c1ccccc1O [Tizoxanide]
EC50 [2]: 8310 nM

O=C(O)[C@H]1C2CCC(CC2)[C@@H]1Nc1nc(-c2c[nH]c3ncc(F)cc23)ncc1F [VX-787, (2S,3S)-3-((5-Fluoro-2-(5-fluoro-1H-pyrrolo[2,3-b]pyridin-3-yl)pyrimidin-4-yl)amino)bicyclo[2.2.2]octane-2-carboxylic Acid]
EC50 ([3]; Influenza A virus): 9.38 nM
proliferation inhibitory effect on influenza virus A (combination effect) [11]: synergistic

CC(=O)N[C@H]1[C@H]([C@H](O)[C@H](O)CO)OC(C(=O)O)=C[C@@H]1N=C(N)N [Zanamivir]
EC50 [6, 12]: 163 nM
